Assay results published in paper PMC9465641 (Frontiers in Pharmacology, 2022).
Structures can show the parent of a compound that is named as a salt. Positions of bridges follow the written chain, without caps; N, C: chain ends. Non-standard residues stand in square brackets, D forms with d. Residues, ends and D or L forms follow the SMILES beside them. *: point of attachment. X1 = CC[C@H](C)CCCCC(=O)*; Dab = NCC[C@H](N)C(=O)O

Key:
[1] = design: method as in Couet et al., 2011; conditions: colistin converted from CMS; ref Couet et al., 2011; cited from earlier work
[2] = Urinary excretion and renal clearance of colistin sulfate; assay type: in vivo, human
Method: Colistin sulfate treatment was at the discretion of their medical teams. […] Colistin sulfate was routinely subjected to therapeutic drug monitoring (TDM) in our hospital. […] Other blood samples were collected randomly from residual blood of blood gas analysis or routine blood tests. In addition, urine samples from 6 patients with catheters in the intensive care unit were collected and recorded across a dosage interval (0–12 h after dosing) after 72 h of therapy. All samples were centrifuged for 10 min (4,000 ×g), and the supernatant was immediately collected and stored at −80°C pending analysis.
Colistin A and colistin B in plasma and urinary samples were quantified using a validated ultraperformance liquid chromatography tandem mass spectrometry (LC-MS/MS) assay. Briefly, samples were pretreated with acetonitrile, and 1 μL supernatant was injected into the LC-MS/MS instrument for analysis. A Waters XBridge BEH HILIC (4.6 × 150 mm, 2.5 μm) column was used. The mobile phase, consisting of eluents A (0.1% formic acid in water, vol/vol) and B (methanol), was delivered at a flow of 0.5 ml/min. Analysis of independently prepared quality control samples indicated good reproducibility (coefficients of variation ≤12.57%), and accuracy ranged from 88.52% to 109.43%. The limit of quantification was 0.034 mg/L for colistin A and 0.059 mg/L for colistin B. Since colistin A and B had similar structures, molecular weights and pharmacokinetic characteristics, the concentrations of colistin A and B were added together and referred to as colistin ([Li et al., 2003]; [Couet et al., 2011]).
The renal clearance (CLR) of colistin was calculated as the ratio of the amount recovered in urine to the area under the plasma concentration-time curve (AUC) during the same period ([Sandri et al., 2013]). The percentage of colistin sulfate excreted in urine was defined as the amount of colistin recovered in urine divided by the dose administered. The fraction of renal clearance was estimated by CLR divided by total body clearance (CL) ([Li et al., 2003]).

[3] = used for fAUC/MIC; ref Nation et al., 2016; cited from earlier work
Method: The AUC for each dosing regimen was calculated at 24 or 72 h after therapy to evaluate the probability of target attainment (PTA) of fAUC/MIC ≥20 ([Dudhani et al., 2010a]; [Cheah et al., 2015]), where f is the unbound fraction of colistin defined as 0.49 ([Nation et al., 2016]). Dosing regimens were considered appropriate if PTA ≥90% was achieved. In addition, the average steady-state plasma colistin concentration (Css,avg) was used to evaluate the probabilities of efficacy and toxicity, and the desired Css, avg were designed to achieve target attainment rates of >80% for Css,avg ≥ 2 and <30% ...

[4] = design: method as in Li et al., 2003; conditions: Sprague-Dawley rats; ref Li et al., 2003; cited from earlier work
[5] = test system: K. pneumoniae; test: MIC for colistin of causative pathogen; assay type: cell-based; conditions: isolate of patient 2; KP
[6] = test system: A. baumannii; test: MIC for colistin of causative pathogen; assay type: cell-based; conditions: AB
[7] = test system: carbapenem-resistant gram-negative bacteria; test: Clinical outcome, microbiological outcome and nephrotoxicity in patients; assay type: in vivo, human
Method: The primary endpoint was the clinical outcome, and the secondary endpoint was the microbiological outcome. Clinical outcomes were defined as valid, if signs and symptoms of infection disappeared or improved on Day 7 after the initiation of colistin therapy; or invalid, defined as any of the following criteria: death related to infection, hemodynamic instability, deteriorated Sequential Organ Failure Assessment (SOFA) score, constant fever >38.5°C, repeat isolation of bacterial phenotypically identical to the index isolate. […] Colistin-induced nephrotoxicity was defined using RIFLE (risk, injury, failure, loss of kidney function, and end-stage renal disease) criteria during treatment ([Bellomo et al., 2004]). […]

[8] = patient 1, Pulmonary, PA+AB, MIC 0.5 mg/L, 1.0 MU q12h, with MER+LIN
[9] = patient 2, Pulmonary, Bloodstream, Urinary tract, KP, MIC 0.5 mg/L, 1.0 MU q12h, with MER
[10] = patient 3, Pulmonary, AB, MIC 0.5 mg/L, 0.75 MU q12h + inhaled 0.25MU q12h, with MER
[11] = patient 6, Pulmonary, Bloodstream, KP, MIC 0.5 mg/L, 1.0 MU q12h + inhaled 0.25MU q12h, with PIP/TAZ
[12] = patient 7, Pulmonary, KP, MIC 0.5 mg/L, 0.75 MU q12h + inhaled 0.25MU q12h, with MER, PIP/TAZ
[13] = patient 8, Pulmonary, AB, MIC 2 mg/L, 0.75 MU q12h + inhaled 0.25MU q12h, with MER
[14] = patient 9, Pulmonary, AB, MIC 0.5 mg/L, 0.75 MU q12h + inhaled 0.25MU q12h, with MER
[15] = patient 10, Pulmonary, AB, MIC 0.5 mg/L, 0.75 MU q12h + inhaled 0.25MU q12h, with MER+LIN
[16] = patient 11, Bloodstream, AB, MIC 0.5 mg/L, 1.0 MU q12h, with MER+TEI
[17] = patient 12, Bloodstream, Urinary tract, KP, MIC 0.5 mg/L, 0.5 MU q8h, with CEF/AVI
[18] = patient 13, Pulmonary, Bloodstream, KP, MIC 0.5 mg/L, 0.5 MU q8h, with CEF/AVI
[19] = patient 14, Pulmonary, Bloodstream, Abdomen, KP, MIC 0.5 mg/L, 0.5 MU q8h, with CEF/AVI
[20] = patient 15, Abdomen, PA+AB, MIC 1, 2 mg/L, 0.75 MU q8h + inhaled 0.25MU q12h, with MER+CEF/SUL
[21] = patient 16, Pulmonary, AB, MIC 0.5 mg/L, 0.5 MU q8h + inhaled 0.25MU q12h, with MER+CEF/SUL
[22] = patient 18, Pulmonary, AB, MIC 0.5 mg/L, 0.75 MU q12h + inhaled 0.25MU q12h, with MER
[23] = patient 19, Pulmonary, AB, MIC 0.5 mg/L, 0.5 MU q8h, with MER+TEI

SMILES: CC[C@H](C)CCCCC(=O)N[C@@H](CCN)C(=O)N[C@H](C(=O)N[C@@H](CCN)C(=O)N[C@H]1CCNC(=O)[C@H]([C@@H](C)O)NC(=O)[C@H](CCN)NC(=O)[C@H](CCN)NC(=O)[C@H](CC(C)C)NC(=O)[C@@H](CC(C)C)NC(=O)[C@H](CCN)NC1=O)[C@@H](C)O [colistin sulfate] (X1-[Dab]T[Dab][Dab][Dab][dL]L[Dab][Dab]T; lactam 4-C)
- CL [1]: 2.92 L/h
- dose excreted ([2]; human, iv, six patients, 41 urine samples, 0-12 h dosage interval after 72 h of therapy, median, read-out: percentage of colistin dose excreted in urine, median): 10.1%
- CLR ([2]; patient 1, 1.0 MU q12h): 0.133 L/h
- CLR/CL ([2]; patient 1, 1.0 MU q12h): 9.15%
- CLR ([2]; patient 2, 1.0 MU q12h): 0.405 L/h
- CLR/CL ([2]; patient 2, 1.0 MU q12h): 15.58%
- CLR ([2]; patient 3, 0.75 MU q12h): 0.108 L/h
- CLR/CL ([2]; patient 3, 0.75 MU q12h): 2.52%
- CLR ([2]; patient 5, 0.75 MU q12h): 0.284 L/h
- CLR/CL ([2]; patient 5, 0.75 MU q12h): 17.95%
- CLR ([2]; patient 7, 0.75 MU q12h): 0.053 L/h
- CLR/CL ([2]; patient 7, 0.75 MU q12h): 4.64%
- CLR ([2]; patient 8, 0.75 MU q12h): 0.767 L/h
- 12-hour urinary excretion of colistin, median ([2]; six patients, median): 4.149 mg
- CLR as percentage of CL (CLR/CL), median ([2]; six patients, median): 12.37%
- renal clearance (CLR), median ([2]; six patients, median): 0.209 L/h
- unbound fraction (f) [3]: 0.49
- dose recovered from urine [4]: 0.18 ± 0.14%
- MIC [5]: 0.5 µg/mL
- MIC ([6]; isolate of patient 8): 2 µg/mL
- MIC ([6]; isolate of patient 18): 0.5 µg/mL
- MIC ([6]; isolate of patient 19): 0.5 µg/mL
- successful clinical outcomes ([7]; 12 of 16 cases, definitive therapy, Day 7): 75%
- microbiological eradication ([7]; 13 of 16 subjects, causative pathogen MIC 0.5–2 mg/L): 81.25%
- colistin-induced nephrotoxicity (RIFLE criteria) ([7]; during the treatment): None of the patients experienced colistin-induced nephrotoxicity
- Clinical outcomes [7, 8]: Valid
- Microbiological outcomes [7, 8]: clearance
- Clinical outcomes [7, 9]: Invalid
- Microbiological outcomes [7, 9]: clearance
- Clinical outcomes [7, 10]: Valid
- Microbiological outcomes [7, 10]: clearance
- Clinical outcomes [7, 11]: Valid
- Microbiological outcomes [7, 11]: clearance
- Clinical outcomes [7, 12]: Valid
- Microbiological outcomes [7, 12]: clearance
- Clinical outcomes [7, 13]: Invalid
- Microbiological outcomes [7, 13]: uncleared
- Clinical outcomes [7, 14]: Valid
- Microbiological outcomes [7, 14]: clearance
- Clinical outcomes [7, 15]: Valid
- Microbiological outcomes [7, 15]: clearance
- Clinical outcomes [7, 16]: Valid
- Microbiological outcomes [7, 16]: clearance
- Clinical outcomes [7, 17]: Valid
- Microbiological outcomes [7, 17]: clearance
- Clinical outcomes [7, 18]: Valid
- Microbiological outcomes [7, 18]: clearance
- Clinical outcomes [7, 19]: Valid
- Microbiological outcomes [7, 19]: clearance
- Clinical outcomes [7, 20]: Invalid
- Microbiological outcomes [7, 20]: uncleared
- Clinical outcomes [7, 21]: Valid
- Microbiological outcomes [7, 21]: clearance
- Clinical outcomes [7, 22]: Valid
- Microbiological outcomes [7, 22]: clearance
- Clinical outcomes [7, 23]: Invalid
- Microbiological outcomes [7, 23]: uncleared
